# Measured values: ChEMBL document CHEMBL1201862, “PubChem BioAssay data set” (2004)
# Activity calls are given as the source filed them.
# Assays:
# [1] = HPDE-C7 pancreatic duct cell viability loss – fluorescence, HTS (AID 430); format: functional, cell-based; conditions: Homo sapiens
# [2] = Trypanosoma cruzi growth suppression in host cells – NIH3T3 host cells, beta-gal luminescence, confirmation (AID 2044); format: functional, cell-based;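 also: intracellular parasites grown in NIH/3T3 mouse fibroblasts as host cells; luminescent beta-galactosidase reporter signal from transgenic T. cruzi replicating inside host cells; inhibitors lower the luminescence signal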
# [3] = viability loss of HPDE-C7K cells – cell-based, fluorescence, HTS, primary screen (AID 431); format: functional; conditions: Homo sapiens
# [4] = NIH3T3 cell viability loss – ATP luminescence, mouse fibroblasts, counter-screen, dose response (AID 2010); format: functional, cell-based; conditions: NIH3T3;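 also: cells exposed to compound for about 90 hours before reading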
# [5] = target: T1, Mannose-6-phosphate isomerase (Homo sapiens, UniProt P34949); assay: MPI enzyme activity inhibition – biochemical, fluorescence intensity, coupled assay, primary screen (AID 1209)
# T1 sequence (P34949 whole entry): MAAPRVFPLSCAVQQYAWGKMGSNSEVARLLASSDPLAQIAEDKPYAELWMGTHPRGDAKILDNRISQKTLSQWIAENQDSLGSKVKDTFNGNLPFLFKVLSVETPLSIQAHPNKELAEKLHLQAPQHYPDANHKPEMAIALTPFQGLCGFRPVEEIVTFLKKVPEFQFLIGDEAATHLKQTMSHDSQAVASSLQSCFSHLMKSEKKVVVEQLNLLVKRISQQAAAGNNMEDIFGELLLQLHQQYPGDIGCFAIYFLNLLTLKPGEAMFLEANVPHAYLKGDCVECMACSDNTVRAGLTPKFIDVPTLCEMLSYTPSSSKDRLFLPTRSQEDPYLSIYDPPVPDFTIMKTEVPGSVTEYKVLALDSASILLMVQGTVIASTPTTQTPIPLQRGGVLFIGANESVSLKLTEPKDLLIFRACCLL
# NADPH oxidase 1 = target: T2, NADPH oxidase 1 (Homo sapiens, UniProt Q9Y5S8); format: functional, cell-based;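 also: Cell-based assay with luminescence read-out, IC50 derived from inhibitor dose-response curves; intracellular ROS from endogenous NOX1 in intact HT29 colon cancer cells; potency of inhibitors that lower the ROS luminescence signal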
# T2 sequence (Q9Y5S8 whole entry): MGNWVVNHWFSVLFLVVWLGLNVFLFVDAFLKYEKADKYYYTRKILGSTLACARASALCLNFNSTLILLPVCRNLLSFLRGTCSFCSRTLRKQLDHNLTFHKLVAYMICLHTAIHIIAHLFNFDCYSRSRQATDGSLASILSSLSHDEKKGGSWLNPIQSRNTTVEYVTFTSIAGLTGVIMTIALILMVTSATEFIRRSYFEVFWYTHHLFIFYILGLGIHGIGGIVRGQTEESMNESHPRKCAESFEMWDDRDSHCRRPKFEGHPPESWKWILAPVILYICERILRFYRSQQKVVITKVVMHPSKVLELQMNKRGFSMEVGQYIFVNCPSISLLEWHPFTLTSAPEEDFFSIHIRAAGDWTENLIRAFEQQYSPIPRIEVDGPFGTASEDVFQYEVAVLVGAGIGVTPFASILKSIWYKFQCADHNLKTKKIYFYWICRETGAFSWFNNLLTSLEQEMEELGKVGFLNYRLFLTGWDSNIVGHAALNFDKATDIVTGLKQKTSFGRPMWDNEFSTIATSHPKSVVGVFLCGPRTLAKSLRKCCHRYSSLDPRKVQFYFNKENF
# [6] = target: T1, Mannose-6-phosphate isomerase; assay: MPI inhibition at elevated mannose 6-phosphate – biochemical, fluorescence intensity, high mannose 6-phosphate, primary screen (AID 1220)
# BJ [7] = assay: BJ-TERT-LT-ST fibroblast viability loss – cell-based, RAS-independent, luminescence, dose response (AID 1935); format: functional; conditions: Homo sapiens;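 also: BJ fibroblasts immortalized with TERT plus LT and ST oncogenes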
# [8] = DRD fibroblast viability loss – cell-based, non-viral oncogenic, luminescence, dose response (AID 1934); format: functional; conditions: Homo sapiens
# BJ [9] = assay: cells; format: functional, cell-based; conditions: Homo sapiens
# BJ [10] = assay: BJ-TERT fibroblast viability loss – cell-based, RAS-independent, luminescence, dose response (AID 1933); format: functional; conditions: Homo sapiens
# [11] = target: T3, Replicative DNA helicase DnaB (Mycobacterium tuberculosis, UniProt P9WMR3); assay: DnaB intein splicing inhibitors, dose response, biochemical, cell-free fluorescence (AID 449749); format: functional
# T3 sequence (P9WMR3 whole entry): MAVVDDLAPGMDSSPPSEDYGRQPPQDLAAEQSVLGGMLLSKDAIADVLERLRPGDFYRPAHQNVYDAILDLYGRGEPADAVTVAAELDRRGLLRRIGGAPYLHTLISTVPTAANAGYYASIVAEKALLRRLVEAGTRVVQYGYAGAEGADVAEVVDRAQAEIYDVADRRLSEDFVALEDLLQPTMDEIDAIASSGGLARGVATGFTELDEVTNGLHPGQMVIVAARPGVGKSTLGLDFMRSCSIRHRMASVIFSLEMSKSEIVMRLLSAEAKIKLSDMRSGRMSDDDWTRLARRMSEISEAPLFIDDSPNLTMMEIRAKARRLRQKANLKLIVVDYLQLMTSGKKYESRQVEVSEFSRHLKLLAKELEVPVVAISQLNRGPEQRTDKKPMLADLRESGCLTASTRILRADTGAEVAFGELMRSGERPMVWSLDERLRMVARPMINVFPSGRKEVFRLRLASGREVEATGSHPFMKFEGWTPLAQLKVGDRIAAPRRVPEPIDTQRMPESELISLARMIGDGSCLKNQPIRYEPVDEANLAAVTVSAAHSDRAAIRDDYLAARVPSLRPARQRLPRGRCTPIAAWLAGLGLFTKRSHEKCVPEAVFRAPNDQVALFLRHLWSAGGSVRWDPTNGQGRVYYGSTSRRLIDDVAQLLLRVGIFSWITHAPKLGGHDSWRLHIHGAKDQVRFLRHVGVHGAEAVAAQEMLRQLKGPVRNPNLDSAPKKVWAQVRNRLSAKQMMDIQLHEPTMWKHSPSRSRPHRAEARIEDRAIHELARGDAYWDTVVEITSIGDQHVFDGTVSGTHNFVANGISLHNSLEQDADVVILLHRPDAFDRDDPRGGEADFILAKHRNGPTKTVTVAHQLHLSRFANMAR
# Protein RecA = target: T4, Protein RecA (Mycobacterium tuberculosis, UniProt P9WHJ3); assay: Fluorescence Cell-Free Homogeneous Dose Retest to Identify Inhibitors of RecA-Intein Splicing Activity. [Related pubchem assays (depositor defined):AID2097, AID2223, AID489010, AID492950]; format: functional
# T4 sequence (P9WHJ3 whole entry): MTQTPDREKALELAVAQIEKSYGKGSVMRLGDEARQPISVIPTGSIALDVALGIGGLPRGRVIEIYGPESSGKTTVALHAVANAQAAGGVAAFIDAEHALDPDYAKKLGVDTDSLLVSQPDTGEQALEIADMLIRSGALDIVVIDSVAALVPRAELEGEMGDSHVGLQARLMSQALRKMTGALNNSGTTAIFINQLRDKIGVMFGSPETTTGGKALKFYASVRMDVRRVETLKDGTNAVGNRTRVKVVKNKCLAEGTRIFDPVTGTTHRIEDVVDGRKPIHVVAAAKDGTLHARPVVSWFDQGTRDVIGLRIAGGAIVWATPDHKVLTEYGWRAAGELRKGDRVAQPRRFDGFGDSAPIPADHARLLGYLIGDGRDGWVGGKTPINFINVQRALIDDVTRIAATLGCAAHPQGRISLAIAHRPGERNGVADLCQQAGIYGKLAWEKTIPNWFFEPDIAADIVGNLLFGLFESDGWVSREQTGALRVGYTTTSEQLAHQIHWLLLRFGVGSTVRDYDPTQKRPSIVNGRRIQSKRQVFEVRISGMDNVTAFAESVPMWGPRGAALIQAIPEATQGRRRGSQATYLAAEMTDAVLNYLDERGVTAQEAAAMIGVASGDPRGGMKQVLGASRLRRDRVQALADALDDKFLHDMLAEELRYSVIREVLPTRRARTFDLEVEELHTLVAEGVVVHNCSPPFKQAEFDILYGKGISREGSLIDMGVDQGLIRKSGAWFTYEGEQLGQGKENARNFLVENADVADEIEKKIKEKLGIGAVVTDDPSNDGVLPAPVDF
# [12] = target: Peroxisome proliferator-activated receptor gamma/Nuclear receptor coactivator 2 (Homo sapiens, UniProt P37231); format: functional;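 also: agonist potency for raising coactivator recruitment to the receptor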
# Chain of Peroxisome proliferator-activated receptor gamma/Nuclear receptor coactivator 2 (P37231 whole entry): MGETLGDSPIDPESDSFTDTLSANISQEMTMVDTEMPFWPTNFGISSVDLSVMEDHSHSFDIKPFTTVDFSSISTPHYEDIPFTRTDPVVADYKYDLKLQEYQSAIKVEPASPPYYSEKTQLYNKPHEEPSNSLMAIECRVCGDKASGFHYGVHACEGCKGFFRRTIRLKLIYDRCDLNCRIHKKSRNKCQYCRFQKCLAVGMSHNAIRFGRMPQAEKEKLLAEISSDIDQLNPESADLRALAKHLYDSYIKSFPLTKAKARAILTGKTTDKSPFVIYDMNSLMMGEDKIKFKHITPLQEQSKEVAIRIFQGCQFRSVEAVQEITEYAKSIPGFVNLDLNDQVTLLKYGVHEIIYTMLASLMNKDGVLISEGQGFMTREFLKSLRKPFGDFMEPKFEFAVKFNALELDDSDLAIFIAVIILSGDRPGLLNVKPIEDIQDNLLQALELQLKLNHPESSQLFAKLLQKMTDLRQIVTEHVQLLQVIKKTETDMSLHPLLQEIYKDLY
# Chain of Peroxisome proliferator-activated receptor gamma/Nuclear receptor coactivator 2 (Q15596 whole entry, further chain): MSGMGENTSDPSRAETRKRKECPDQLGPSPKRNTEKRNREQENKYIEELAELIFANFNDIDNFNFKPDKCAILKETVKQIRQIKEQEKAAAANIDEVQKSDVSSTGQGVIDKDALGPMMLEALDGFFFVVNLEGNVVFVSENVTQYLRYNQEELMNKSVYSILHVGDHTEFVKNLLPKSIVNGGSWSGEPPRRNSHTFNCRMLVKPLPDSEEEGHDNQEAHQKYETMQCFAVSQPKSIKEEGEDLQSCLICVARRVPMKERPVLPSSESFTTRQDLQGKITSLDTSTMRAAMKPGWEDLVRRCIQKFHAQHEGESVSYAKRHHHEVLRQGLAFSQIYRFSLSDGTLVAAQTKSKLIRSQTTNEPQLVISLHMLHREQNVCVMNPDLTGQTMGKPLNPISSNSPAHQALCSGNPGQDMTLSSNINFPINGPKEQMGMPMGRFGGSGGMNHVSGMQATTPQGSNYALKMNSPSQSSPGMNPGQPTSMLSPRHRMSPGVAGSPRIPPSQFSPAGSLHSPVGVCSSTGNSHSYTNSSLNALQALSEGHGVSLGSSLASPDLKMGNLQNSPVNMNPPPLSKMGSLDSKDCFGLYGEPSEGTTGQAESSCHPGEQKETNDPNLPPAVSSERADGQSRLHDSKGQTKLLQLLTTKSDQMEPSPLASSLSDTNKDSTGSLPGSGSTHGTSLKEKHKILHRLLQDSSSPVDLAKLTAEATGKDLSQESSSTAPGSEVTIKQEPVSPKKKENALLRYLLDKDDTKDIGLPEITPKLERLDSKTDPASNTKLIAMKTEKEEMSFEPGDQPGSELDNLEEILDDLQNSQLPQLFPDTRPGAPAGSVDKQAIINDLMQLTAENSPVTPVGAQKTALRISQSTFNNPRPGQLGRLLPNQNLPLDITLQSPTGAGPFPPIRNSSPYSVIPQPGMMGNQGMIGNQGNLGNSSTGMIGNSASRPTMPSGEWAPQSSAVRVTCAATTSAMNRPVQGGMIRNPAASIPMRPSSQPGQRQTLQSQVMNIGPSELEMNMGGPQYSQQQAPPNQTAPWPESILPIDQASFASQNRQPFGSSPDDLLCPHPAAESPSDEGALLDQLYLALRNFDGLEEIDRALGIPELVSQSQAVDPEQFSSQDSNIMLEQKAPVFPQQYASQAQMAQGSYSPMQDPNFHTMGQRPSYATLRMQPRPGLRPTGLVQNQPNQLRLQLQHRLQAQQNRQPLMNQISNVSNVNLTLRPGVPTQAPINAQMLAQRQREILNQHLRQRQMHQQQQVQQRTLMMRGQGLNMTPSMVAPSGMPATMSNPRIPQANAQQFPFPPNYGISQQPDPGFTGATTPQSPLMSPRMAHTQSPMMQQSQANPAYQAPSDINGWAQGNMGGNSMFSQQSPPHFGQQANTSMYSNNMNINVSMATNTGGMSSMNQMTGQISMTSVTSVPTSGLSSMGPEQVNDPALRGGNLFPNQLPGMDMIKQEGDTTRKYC
# [13] = target: Peroxisome proliferator-activated receptor gamma/Nuclear receptor coactivator 1 (Homo sapiens, UniProt P37231); format: functional;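 also: agonist potency as compounds enhance coactivator SRC-1 recruitment to PPARgamma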
# Chain of Peroxisome proliferator-activated receptor gamma/Nuclear receptor coactivator 1 (P37231 whole entry): as the sequence (P37231 whole entry) above
# Chain of Peroxisome proliferator-activated receptor gamma/Nuclear receptor coactivator 1 (Q15788 whole entry, further chain): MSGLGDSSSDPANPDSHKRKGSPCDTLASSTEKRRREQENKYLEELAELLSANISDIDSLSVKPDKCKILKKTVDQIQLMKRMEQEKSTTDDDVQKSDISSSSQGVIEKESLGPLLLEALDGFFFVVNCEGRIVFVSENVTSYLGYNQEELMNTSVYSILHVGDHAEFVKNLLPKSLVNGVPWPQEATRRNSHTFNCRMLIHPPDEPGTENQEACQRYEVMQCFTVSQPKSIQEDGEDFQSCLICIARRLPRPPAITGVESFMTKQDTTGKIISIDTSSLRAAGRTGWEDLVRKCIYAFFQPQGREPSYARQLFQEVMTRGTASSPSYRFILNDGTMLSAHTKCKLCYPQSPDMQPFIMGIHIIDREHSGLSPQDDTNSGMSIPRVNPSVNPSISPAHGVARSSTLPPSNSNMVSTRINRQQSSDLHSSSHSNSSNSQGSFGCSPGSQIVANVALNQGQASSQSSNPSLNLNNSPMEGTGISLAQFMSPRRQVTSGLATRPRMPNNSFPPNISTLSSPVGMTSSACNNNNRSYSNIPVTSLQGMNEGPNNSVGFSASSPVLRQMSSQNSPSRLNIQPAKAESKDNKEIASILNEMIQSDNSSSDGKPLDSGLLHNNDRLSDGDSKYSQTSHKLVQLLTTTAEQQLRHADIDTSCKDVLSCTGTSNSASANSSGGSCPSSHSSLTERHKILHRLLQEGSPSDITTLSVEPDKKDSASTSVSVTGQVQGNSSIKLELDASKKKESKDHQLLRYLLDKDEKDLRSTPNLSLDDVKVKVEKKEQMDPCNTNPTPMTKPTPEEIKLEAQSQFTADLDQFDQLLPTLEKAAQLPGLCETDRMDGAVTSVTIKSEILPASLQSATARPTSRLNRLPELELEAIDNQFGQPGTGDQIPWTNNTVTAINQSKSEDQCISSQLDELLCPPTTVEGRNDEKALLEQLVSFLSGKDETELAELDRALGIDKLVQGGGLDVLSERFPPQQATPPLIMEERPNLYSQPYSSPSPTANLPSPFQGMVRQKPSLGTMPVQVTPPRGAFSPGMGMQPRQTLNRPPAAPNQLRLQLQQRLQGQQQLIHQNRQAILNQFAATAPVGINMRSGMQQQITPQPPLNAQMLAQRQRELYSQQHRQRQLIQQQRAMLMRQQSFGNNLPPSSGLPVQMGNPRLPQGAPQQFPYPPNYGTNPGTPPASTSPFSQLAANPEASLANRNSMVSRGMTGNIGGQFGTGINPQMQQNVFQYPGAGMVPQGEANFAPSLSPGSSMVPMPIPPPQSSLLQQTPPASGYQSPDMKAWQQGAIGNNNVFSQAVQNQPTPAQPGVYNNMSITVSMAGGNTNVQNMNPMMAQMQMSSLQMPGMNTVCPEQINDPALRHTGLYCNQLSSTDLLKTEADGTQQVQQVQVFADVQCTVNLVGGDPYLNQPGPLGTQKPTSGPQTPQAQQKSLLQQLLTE
# [14] = target: Peroxisome proliferator-activated receptor gamma/Nuclear receptor coactivator 3 (Homo sapiens, UniProt P37231); format: functional;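 also: agonist potency for raising coactivator recruitment to the receptor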
# [15] = target: T5, DNA repair protein RAD52 homolog (Homo sapiens, UniProt P43351); format: functional, biochemical
# T5 sequence (P43351 whole entry): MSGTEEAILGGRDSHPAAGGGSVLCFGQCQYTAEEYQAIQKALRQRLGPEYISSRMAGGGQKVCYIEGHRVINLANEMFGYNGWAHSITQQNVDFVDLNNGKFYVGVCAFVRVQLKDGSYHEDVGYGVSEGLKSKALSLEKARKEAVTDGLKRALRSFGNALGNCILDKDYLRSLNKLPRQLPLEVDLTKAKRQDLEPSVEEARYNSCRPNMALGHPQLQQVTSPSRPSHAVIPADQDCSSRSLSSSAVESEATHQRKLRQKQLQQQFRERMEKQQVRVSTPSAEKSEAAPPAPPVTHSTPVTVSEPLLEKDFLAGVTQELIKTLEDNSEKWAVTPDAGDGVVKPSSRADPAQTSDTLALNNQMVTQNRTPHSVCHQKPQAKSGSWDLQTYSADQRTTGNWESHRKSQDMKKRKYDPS
# [16] = viability of HCT116 lacking mutant beta-catenin – cell-based, human colon tumor, dose response (AID 1045); format: functional;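 also: HCT116 colon tumor cells with beta catenin knocked out; cells exposed to compound for 60 hours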
# [17] = viability of PTEN-deleted HCT116 cells – cell-based, HCT116 PTEN knockout, dose response (AID 1047); format: functional;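 also: HCT116 colon tumor cells with PTEN knocked out; cells exposed to compound for 60 hours before readout; potency for loss of cell viability measured by luminescence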
# [18] = viability loss in THP-1 monocytes – THP-1 cells, cytotoxicity control for Vif-APOBEC3G degradation inhibitor project, dose response (AID 1117359); format: functional; conditions: THP-1
# Aminopeptidase N = target: T6, Aminopeptidase N (Plasmodium falciparum FcB1/Columbia, UniProt O96935); assay: malaria alanyl aminopeptidase activity blockers – biochemical, fluorogenic H-Leu-NHMec substrate, 1536-well (AID 1445); parameters: species or system Plasmodium falciparum 3D7, 3D7
# T6 sequence (O96935 whole entry): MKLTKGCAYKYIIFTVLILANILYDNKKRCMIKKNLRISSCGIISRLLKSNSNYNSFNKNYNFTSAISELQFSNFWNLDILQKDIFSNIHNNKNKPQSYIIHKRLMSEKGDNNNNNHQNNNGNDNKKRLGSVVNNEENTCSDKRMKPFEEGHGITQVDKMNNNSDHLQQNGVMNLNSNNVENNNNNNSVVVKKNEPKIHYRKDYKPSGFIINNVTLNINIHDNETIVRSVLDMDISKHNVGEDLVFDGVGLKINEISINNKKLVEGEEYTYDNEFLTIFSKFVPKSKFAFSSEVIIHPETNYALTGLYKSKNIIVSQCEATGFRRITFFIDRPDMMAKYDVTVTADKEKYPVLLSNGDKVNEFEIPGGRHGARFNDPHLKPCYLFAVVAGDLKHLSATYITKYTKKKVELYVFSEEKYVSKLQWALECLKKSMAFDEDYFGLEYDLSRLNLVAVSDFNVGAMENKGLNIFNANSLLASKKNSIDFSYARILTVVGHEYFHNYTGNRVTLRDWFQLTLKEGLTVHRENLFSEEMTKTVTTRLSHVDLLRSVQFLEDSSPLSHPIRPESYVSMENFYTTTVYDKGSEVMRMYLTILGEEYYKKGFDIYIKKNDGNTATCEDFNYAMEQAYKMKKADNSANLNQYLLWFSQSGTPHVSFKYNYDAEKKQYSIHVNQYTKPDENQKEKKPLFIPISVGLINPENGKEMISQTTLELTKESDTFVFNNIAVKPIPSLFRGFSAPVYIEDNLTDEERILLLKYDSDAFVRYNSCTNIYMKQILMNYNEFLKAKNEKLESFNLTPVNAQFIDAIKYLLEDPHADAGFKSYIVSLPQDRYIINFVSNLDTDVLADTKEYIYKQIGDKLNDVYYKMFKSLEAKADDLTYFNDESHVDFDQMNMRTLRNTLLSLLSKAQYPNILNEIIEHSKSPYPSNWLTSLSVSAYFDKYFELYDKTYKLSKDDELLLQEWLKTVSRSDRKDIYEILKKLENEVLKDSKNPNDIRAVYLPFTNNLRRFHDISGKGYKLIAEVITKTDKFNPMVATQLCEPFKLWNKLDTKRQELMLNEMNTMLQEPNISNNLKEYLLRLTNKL
structure (smiles),measurement,setting,value
Cc1cc2oc(=O)cc(CN3CCN(C/C=C/c4ccccc4)CC3)c2cc1O,EC50,[1],> 20 µM (not active)
same,EC50,[2],0.102 µM (active)
same,EC50,[3],> 20 µM (not active)
same,EC50,[4],> 60 µM (not active)
CN(O)/C=N/C(=S)Nc1ccc(Cl)cc1Cl,IC50,[5],> 50 µM (not active)
Fc1ccc(-c2nc(-c3ccccc3)c(-c3ccccc3)[nH]2)cc1,IC50,NADPH oxidase 1,> 17 µM (not active)
CN1C(=O)N(C)C(=O)C2(Cc3c(ccc4ccccc34)N(C)C2)C1=O,IC50,[5],> 50 µM (not active)
same,IC50,[6],> 50 µM (not active)
CC(C)N(c1ccccc1)c1ccc(NC(=O)CCl)cc1,EC50,BJ [7],> 150 µM (inconclusive)
same,EC50,[2],< 0.1 µM (active)
same,EC50,[8],1.37 µM (active)
same,EC50,BJ [9],108 µM (active)
same,EC50,[4],> 60 µM (not active)
same,EC50,BJ [10],0.344 µM (inconclusive)
same,EC50,cells,0.102 µM (active)
same,AC50,[11],4.41 µM (active)
same,EC50,Protein RecA,0.505 µM (active)
O=C(Nc1ccc([N+](=O)[O-])cc1)/C(=C/c1cccc([N+](=O)[O-])c1)NC(=O)C1CCCCC1,EC50,[12],> 79.4 µM (not active)
same,EC50,[13],> 79.4 µM (not active)
same,EC50,[14],> 79.4 µM (not active)
COc1cc2nc(N(CCCN(C)C)C(=O)c3ccc(S(=O)(=O)N4CCc5ccccc54)cc3)sc2cc1OC,EC50,[2],< 0.1 µM (active)
same,AC50,[15],6.54 µM (active)
same,EC50,[4],16.4 µM (active)
same,EC50,cells,0.129 µM (active)
CCOC(=O)N1CCN(S(=O)(=O)c2ccc(C(=O)N(CCCN(C)C)c3nc4cc(OC)ccc4s3)cc2)CC1,EC50,[2],< 0.1 µM (active)
same,EC50,[4],> 30 µM (not active)
same,EC50,cells,0.03 µM (active)
Cc1occc1C(=O)N/N=C/c1ccc(Br)s1,EC50,[12],> 79.4 µM (not active)
same,EC50,[13],> 79.4 µM (not active)
same,EC50,[14],> 79.4 µM (not active)
Clc1ccc(-c2nc(-c3ccccc3)c(-c3ccccc3)[nH]2)cc1,IC50,NADPH oxidase 1,> 17 µM (not active)
O=S(=O)(CCN(CCS(=O)(=O)C(F)(F)F)CC1CCCO1)C(F)(F)F (configuration not stated),EC50,[1],11.1 µM (active)
same,EC50,[16],9.32 µM (active)
same,EC50,[17],15.3 µM (active)
same,EC50,[3],10.6 µM (active)
CCOC(=O)N1CCN(c2c(NCc3ccccc3Cl)c(=O)c2=O)CC1,CC50,[18],29.6 µM (active)
same,IC50,Aminopeptidase N,69.3 µM (active)
